Values joined by “and” are separate entries in the source; they are usually repeats but may differ in a detail not shown here. Identical values can stand only once. Toxic doses and inconclusive results are not listed. Rule as the data show it: active = T/C of 150% or more; inactive = T/C below 125%.
Test system: L1210 leukemia ip in BDF1 mice, survival T/C
Assay: NCI In Vivo Anticancer Drug Screen. Data for tumor model L1210 Leukemia (intraperitoneal) in B6D2F1 (BDF1) mice
Details: endpoint: mean survival time, higher = longer survival
In short: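 Antitumor effect is assessed in tumor-bearing animals. Survival in the compound arm is compared with a vehicle-dosed control arm and expressed as their quotient.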

[1] = dose: 100.0 mg/kg/injection, schedule: Q04DX002 (ip), vehicle: saline with Tween-80
[2] = dose: 200.0 mg/kg/injection, schedule: Q04DX002 (ip), vehicle: saline with Tween-80
[3] = dose: 25.0 mg/kg/injection, schedule: Q01DX009 (ip), vehicle: Klucel (hydroxypropylcellulose) (HPC)
[4] = dose: 25.0 mg/kg/injection, schedule: Q04DX003 (ip), vehicle: Klucel (hydroxypropylcellulose) (HPC)
[5] = dose: 50.0 mg/kg/injection, schedule: Q04DX003 (ip), vehicle: Klucel (hydroxypropylcellulose) (HPC)
[6] = dose: 100.0 mg/kg/injection, schedule: Q01DX009 (ip), vehicle: saline with Tween-80
[7] = dose: 200.0 mg/kg/injection, schedule: Q01DX009 (ip), vehicle: saline with Tween-80
[8] = dose: 400.0 mg/kg/injection, schedule: Q01DX009 (ip), vehicle: saline with Tween-80
[9] = dose: 50.0 mg/kg/injection, schedule: Q01DX001 (ip), vehicle: saline
[10] = dose: 50.0 mg/kg/injection, schedule: Q01DX009 (ip), vehicle: Klucel (hydroxypropylcellulose) (HPC)
[11] = dose: 100.0 mg/kg/injection, schedule: Q01DX009 (ip), vehicle: Klucel (hydroxypropylcellulose) (HPC)
[12] = dose: 100.0 mg/kg/injection, schedule: Q04DX003 (ip), vehicle: Klucel (hydroxypropylcellulose) (HPC)
[13] = dose: 200.0 mg/kg/injection, schedule: Q01DX009 (ip), vehicle: Klucel (hydroxypropylcellulose) (HPC)
[14] = dose: 200.0 mg/kg/injection, schedule: Q04DX003 (ip), vehicle: Klucel (hydroxypropylcellulose) (HPC)
[15] = dose: 400.0 mg/kg/injection, schedule: Q04DX003 (ip), vehicle: Klucel (hydroxypropylcellulose) (HPC)
[16] = dose: 100.0 mg/kg/injection, schedule: Q01DX001 (ip), vehicle: saline
[17] = dose: 200.0 mg/kg/injection, schedule: Q01DX001 (ip), vehicle: saline
[18] = dose: 400.0 mg/kg/injection, schedule: Q01DX009 (ip), vehicle: Klucel (hydroxypropylcellulose) (HPC)
[19] = dose: 100.0 mg/kg/injection, schedule: Q04DX003 (ip), vehicle: saline with Tween-80
[20] = dose: 200.0 mg/kg/injection, schedule: Q04DX003 (ip), vehicle: saline with Tween-80
[21] = dose: 400.0 mg/kg/injection, schedule: Q04DX003 (ip), vehicle: saline with Tween-80
[22] = dose: 100.0 mg/kg/injection, schedule: Q04DX003 (ip), vehicle: saline
[23] = dose: 400.0 mg/kg/injection, schedule: Q04DX003 (ip), vehicle: saline
[24] = dose: 200.0 mg/kg/injection, schedule: Q04DX003 (ip), vehicle: saline
[25] = dose: 400.0 mg/kg/injection, schedule: Q04DX002 (ip), vehicle: saline with Tween-80

Measured: T/C

CC(O)(c1ccccc1)C(C)(O)c1ccccc1 (configuration not stated)
inactive: dose: 50.0 mg/kg/injection, schedule: Q04DX002 (ip), vehicle: saline with Tween-80 114 % of control | [1] 96 % of control | [2] 93 % of control

C=CC(C)C(C)CC (configuration not stated)
inactive: dose: 50.0 mg/kg/injection, schedule: Q01DX001 (ip), vehicle: carboxymethylcellulose (CMC) 104 % of control | dose: 100.0 mg/kg/injection, schedule: Q01DX001 (ip), vehicle: carboxymethylcellulose (CMC) 95 % of control | dose: 200.0 mg/kg/injection, schedule: Q01DX001 (ip), vehicle: carboxymethylcellulose (CMC) 93 % of control | dose: 400.0 mg/kg/injection, schedule: Q01DX001 (ip), vehicle: carboxymethylcellulose (CMC) 101 % of control

CCCCCCCCCCCCCCCCCN
inactive: dose: 12.5 mg/kg/injection, schedule: Q01DX009 (ip), vehicle: Klucel (hydroxypropylcellulose) (HPC) 100 % of control | dose: 12.5 mg/kg/injection, schedule: Q04DX003 (ip), vehicle: Klucel (hydroxypropylcellulose) (HPC) 93 % of control | [3] 101 % of control | [4] 100 % of control | [5] 102 % of control

CN(C)CCP(=O)(O)O
inactive: [6] 96 % of control | [7] 95 % of control | [8] 91 % of control

CCOc1cccc(NNc2ccccc2OCC)c1
inactive: dose: 44.0 mg/kg/injection, schedule: Q01DX001 (ip), vehicle: other 106 % of control | dose: 66.0 mg/kg/injection, schedule: Q01DX001 (ip), vehicle: other 95 % of control | dose: 150.0 mg/kg/injection, schedule: Q01DX001 (ip), vehicle: other 92 % of control | dose: 200.0 mg/kg/injection, schedule: Q01DX001 (ip), vehicle: other 97 % of control | dose: 400.0 mg/kg/injection, schedule: Q01DX001 (ip), vehicle: other 97 % of control

C=COC(N)=O
inactive: dose: 33.0 mg/kg/injection, schedule: Q01DX001 (ip), vehicle: saline 116 % of control | [9] 117 % of control | dose: 75.0 mg/kg/injection, schedule: Q01DX001 (ip), vehicle: saline 121 % of control | dose: 113.0 mg/kg/injection, schedule: Q01DX001 (ip), vehicle: saline 111 % of control

CN1C(=O)CCS(=O)(=O)C1c1ccc(Cl)cc1 (configuration not stated)
inactive: [3] 104 % of control | [4] 94 % of control | [10] 103 % of control | [5] 101 % of control | [11] 101 % of control | [12] 101 % of control | [13] 92 % of control | [14] 97 % of control | [15] 99 % of control

c1ccc2sc(SSc3nc4ccccc4s3)nc2c1
inactive: [9] 96 % of control | [16] 98 % of control | [11] 86 % of control | [12] 97 % of control | [17] 92 % of control | [13] 96 % of control | [14] 94 % of control | dose: 400.0 mg/kg/injection, schedule: Q01DX001 (ip), vehicle: saline 104 % of control | [18] 90 % of control | [15] 90 % of control

CC1(C)C(=O)C2(C(=O)O)CCC1C2 (configuration not stated)
inactive: [6] 93 % of control | [19] 101 % of control | [7] 98 % of control | [20] 101 % of control | [8] 96 % of control | [21] 88 % of control

CCCCCCCOCc1ccccc1
inactive: [22] 111 % of control | dose: 200.0 mg/kg/injection, schedule: Q04DX003 (ip), vehicle: acetone 94 % of control | dose: 300.0 mg/kg/injection, schedule: Q04DX003 (ip), vehicle: acetone 96 % of control | [23] 97 % of control

C[N+](C)(C)N=C1CCCCC1
inactive: [16] 104 % of control | [17] 104 % of control

Cc1cccc(C)c1NC(=O)C[N+](C)(C)N
inactive: dose: 100.0 mg/kg/injection, schedule: Q04DX002 (ip), vehicle: saline 94 % of control | dose: 200.0 mg/kg/injection, schedule: Q04DX002 (ip), vehicle: saline 94 % of control

Cc1cc(Cl)ccc1NC(=O)c1ccccc1Cl
inactive: [11] 101 % of control | [22] 109 % of control | [13] 90 % of control | [24] 106 % of control | [18] 89 % of control | [23] 106 % of control

Cc1c(C(=O)O)c(C(=O)O)c(C)n1-c1ccccc1C(=O)O (tested in a mixture with another compound)
inactive: [22] 106 % of control | [24] 101 % of control

COc1cccc(/C(C#N)=C\O)c1
inactive: [1] 104 % of control | [2] 96 % of control

O=C(c1ccc(O)cc1O)c1ccc(O)cc1O
inactive: dose: 50.0 mg/kg/injection, schedule: Q04DX002 (ip), vehicle: gum acacia 114 % of control | dose: 100.0 mg/kg/injection, schedule: Q04DX002 (ip), vehicle: gum acacia 104 % of control | dose: 200.0 mg/kg/injection, schedule: Q04DX002 (ip), vehicle: gum acacia 86 % of control

Cc1cc(Cl)ccc1NC(=O)COc1ccc(Cl)cc1
inactive: [3] 100 % of control | [10] 90 % of control | [11] 88 % of control | [12] 104 % of control | [14] 101 % of control | [15] 92 % of control

CCCCCCCCCCCCN1CCSCC1
inactive: dose: 25.0 mg/kg/injection, schedule: Q04DX003 (ip), vehicle: saline with Tween-80 95 % of control and 105 % of control | dose: 50.0 mg/kg/injection, schedule: Q04DX003 (ip), vehicle: saline with Tween-80 104 % of control and 90 % of control | dose: 100.0 mg/kg/injection, schedule: Q01DX001 (ip), vehicle: saline with Tween-80 105 % of control and 117 % of control | [1] 95 % of control and 113 % of control | dose: 200.0 mg/kg/injection, schedule: Q01DX001 (ip), vehicle: saline with Tween-80 94 % of control and 117 % of control | [2] 95 % of control and 113 % of control | [20] 93 % of control and 104 % of control and 110 % of control | dose: 400.0 mg/kg/injection, schedule: Q01DX001 (ip), vehicle: saline with Tween-80 97 % of control and 104 % of control | [25] 97 % of control and 98 % of control | [21] 108 % of control and 90 % of control

N=C(N)/[N+]([O-])=N/O
inactive: dose: 8.0 mg/kg/injection, schedule: Q01DX001 (ip), vehicle: saline + alcohol 97 % of control | dose: 12.0 mg/kg/injection, schedule: Q01DX001 (ip), vehicle: saline + alcohol 100 % of control | dose: 18.0 mg/kg/injection, schedule: Q01DX001 (ip), vehicle: saline + alcohol 111 % of control | dose: 26.0 mg/kg/injection, schedule: Q01DX001 (ip), vehicle: saline + alcohol 98 % of control | dose: 40.0 mg/kg/injection, schedule: Q01DX001 (ip), vehicle: saline + alcohol 103 % of control | dose: 60.0 mg/kg/injection, schedule: Q01DX001 (ip), vehicle: saline + alcohol 95 % of control | dose: 90.0 mg/kg/injection, schedule: Q01DX001 (ip), vehicle: saline + alcohol 101 % of control | dose: 135.0 mg/kg/injection, schedule: Q01DX001 (ip), vehicle: saline + alcohol 100 % of control | dose: 200.0 mg/kg/injection, schedule: Q01DX001 (ip), vehicle: saline + alcohol 108 % of control

CC(Cl)(S(=O)c1ccccc1)C1(O)CCCCC1 (configuration not stated)
inactive: dose: 100.0 mg/kg/injection, schedule: Q03DX002 (ip), vehicle: saline with Tween-80 113 % of control | dose: 200.0 mg/kg/injection, schedule: Q03DX002 (ip), vehicle: saline with Tween-80 102 % of control | dose: 400.0 mg/kg/injection, schedule: Q03DX002 (ip), vehicle: saline with Tween-80 105 % of control

NC(=O)C1=C(N)CCC1
inactive: [19] 100 % of control | [20] 95 % of control | [21] 97 % of control

O=C(NC(=S)c1cccc2ccccc12)Nc1ccc(Cl)cc1
inactive: [1] 97 % of control | [2] 89 % of control | [25] 89 % of control

C=CCNC(=S)Nc1cccc(OC(=O)NC(C)(C)C)c1
inactive: [11] 90 % of control | [13] 90 % of control | [18] 92 % of control
